Laboratory results from patent publication US10736927B2, “Pharmaceutical compositions for preventing or treating inflammatory bowel diseases” (INSERM (INSTITUT NATIONAL DE LA SANTE ET DE LA RECHERCHE …, priority 2015, dated 2020).

Tests used:
Card9−/−→GF mice = test: DSS-induced colitis in Card9−/−→GF mice supplemented with three Lactobacillus strains; format: in vivo; details: antagonist 100 μg/mouse i.p. three times per week, data not shown
Procedure: To induce colitis, mice were administered drinking water supplemented with 2% (wt./vol.) dextran sulfate sodium (DSS; MP Biomedicals, LLC, Aurora, Ohio, USA) for 7 days and were then allowed to recover by drinking unsupplemented water for the next 5 days. The 6-formylindolo(3,2-b)carbazole (Ficz; Enzo Life Sciences, Lausen, Switzerland) and the AHR antagonist CH223191 (AHR; Sigma-Aldrich) were resuspended in dimethyl sulfoxide (DMSO; Sigma-Aldrich) and administered intraperitoneally. Ficz was injected 1 day after DSS administration (1 μg/mouse). For the AHR treatment, WT→GF and Card9−/−→GF mice (4- to 5-week-old females) were treated (100 μg/mouse) three times per week until euthanization. Controls consisted of mice injected with DMSO vehicle alone for the Ficz and AHR treatment groups. […] The resulting sequences were aligned, inspected by eye, and compared with the online tool BLAST. Strains were identified based on the highest hit scores. These strains were deposited in the Collection Nationale de Cultures de Microorganismes (CNCM) of the Institut Pasteur and named L. murinus CNCM I-5020, L. reuteri CNCM I-5022, and L. taiwanensis CNCM I-5019. […] In all treatments, body weight, blood in stool, and stool consistency were analyzed daily. The severity of colitis was assessed using the disease activity index (DAI) as previously described (6).

[1] = system: DSS-exposed MCard9−/− mice; test: DSS-induced colitis with Ficz injection in microbiota-colonized germ-free mice; format: in vivo; details: Ficz 1 μg/mouse i.p. 1 day after DSS; Ficz-treated MCard9−/− mice vs non-treated counterparts during recovery
Procedure: Fresh stool samples from WT or Card9^−/− mice were immediately transferred to an anaerobic chamber, in which the stool samples were suspended and diluted 1:100 in LYHBHI medium (BD Difco, Le Pont De Claix, France) supplemented with cellobiose (1 mg/ml; Sigma-Aldrich, St. Louis, Mo., USA), maltose (1 mg/ml; Sigma-Aldrich), and cysteine (0.5 mg/ml; Sigma-Aldrich). Four- to five-week-old WT germ-free mice were randomly assigned to two groups and inoculated via oral gavage with 400 μl of fecal suspension from the conventional wild-type (MWT) or Card9^−/− (MCard9^−/−) mice and maintained in separated isolators. One aliquot of each fecal suspension was stored at −80° C. […]
To induce colitis, the mice were administered drinking water supplemented with 2% (w/v) dextran sulfate sodium (DSS; MP Biomedicals, LLC, Aurora, Ohio, USA) for 7 days, and then allowed to recover by drinking unsupplemented water for the next 5 days (FIG. 7 a). […] Body weight, gross blood, and stool consistency were analyzed daily. The severity of colitis was assessed using the disease activity index (DAI) as previously described (6).
Colon samples for histological studies were maintained at 4° C. in 4% paraformaldehyde and then embedded in paraffin. […] The number of cleaved caspase-3-positive cells in 100 μm of analyzed colon was counted. Ki67 was quantified as a percentage of the total height of each crypt. […]

[2] = system: Il22, RegIIIγ, RegIIIβ, Il17A transcript expression in colon; test: Colon transcript expression by qRT-PCR in DSS-exposed mice treated with Ficz; format: in vivo, mouse
Procedure: (§1) To induce colitis, the mice were administered drinking water supplemented with 2% (w/v) dextran sulfate sodium (DSS; MP Biomedicals, LLC, Aurora, Ohio, USA) for 7 days, and then allowed to recover by drinking unsupplemented water for the next 5 days (FIG. 7 a). 6-formylindolo[3,2-b]carbazole (Ficz) was obtained from Enzo Life Sciences (Lausen, Switzerland) resuspended in dimethyl sulfoxide (DMSO; Sigma-Aldrich) and was administered intraperitoneally 1 day after DSS administration (1 μg/mouse). Controls consisted of mice injected with DMSO vehicle alone. For the antifungal treatment, mice were fed 0.5 mg/ml fluconazole in the drinking water (Sigma-Aldrich) 1 week before DSS administration and every day thereafter, as previously described^18. Body weight, gross blood, and stool consistency were analyzed daily. The severity of colitis was assessed using the disease activity index (DAI) as previously described (6).
Total RNA was isolated from colon samples using an RNeasy Mini Kit (Qiagen, Hilden, Germany), according to the manufacturer's instructions. Quantitative RT-PCR was performed using SuperScript II Reverse Transcriptase (Life Technologies, Saint Aubin, France) and then a Takyon SYBR Green PCR kit (Eurogentec, Liege, Belgium) in a StepOnePlus apparatus (Applied Biosystems, Foster City, Calif., USA) with specific mouse oligonucleotides. We used the 2^−ΔΔCt quantification method with mouse Gapdh as an endogenous control and the WT or MWT group as a calibrator.

[3] = system: cytokines secreted by colon explants; test: Cytokines secreted by colon explants (ELISA) of DSS-exposed mice treated with Ficz; format: in vivo, mouse
Procedure: as §1
MLNs and spleens were sieved through a 70-μm cell strainer (BD, Le Pont De Claix, France) in complete RPMI 1640 medium (10% heat-inactivated fetal calf serum, 2 mM L-glutamine, 50 IU/ml penicillin, and 50 μg/ml streptomycin; Sigma-Aldrich), and 1×10^6 cells per well were cultured (37° C., 10% CO2) for 48 h with stimulation by phorbol 12-myristate 13-acetate (PMA, 50 ng/ml; Sigma-Aldrich) and ionomycin (1 μM; Sigma-Aldrich). The culture supernatant was frozen at −80° C. until processing. To measure the cytokine levels in the colonic explants, tissues from the medium colon were isolated and rinsed in phosphate buffered saline (PBS; Gibco, Paisley, United Kingdom). The colonic explants were cultured (37° C., 10% CO2) overnight in 24-well tissue culture plates (Costar, Corning, Amsterdam, The Netherlands) in 1 ml of complete RPMI 1640 medium. The culture supernatants were collected and stored at −80° C. until processing. ELISAs were performed on the supernatants to quantify mouse cytokines according to the manufacturer's instructions: IL10, IL17A, and IFNγ (Mabtech, Nacka Strand, Sweden); IL22 (eBioscience, San Diego, Calif., USA); and IL6 (R&D Systems, Minneapolis, Minn., USA). For the colonic explants, cytokine concentrations were normalized according to the dry weight of each colonic explant.

[4] = system: DSS-exposed MWT and MCard9−/− mice; test: DSS-induced colitis with antifungal treatment in MWT and MCard9−/− mice; format: in vivo, mouse; details: fluconazole 0.5 mg/ml in drinking water from 1 week before DSS
Procedure: as §1

AhR = AhR activation luciferase reporter assay in H1L1.1c2 cells; format: cell-based, mouse; details: bacterial culture supernatant, relative to culture media (FIG. 13a)
Procedure: The H1L1.1c2 cell line containing a stably integrated DRE-driven firefly luciferase reporter plasmid pGudLuc1.1 was provided by Michael S. Denison (University of California, Davis, Calif., USA) and has been described previously (47, 48). The cells were seeded in 96-well plates at 7.5×10^4 cells/well in 100 μl of complete DMEM medium (10% heat-inactivated fetal calf serum, 50 IU/ml penicillin, and 50 μg/ml streptomycin; Sigma-Aldrich) and cultured (37° C., 10% CO2) for 24 h prior to treatment. Fresh stools from healthy and IBD patients in remission and from WT, Card9^−/−, MWT, MCard9^−/−, Ido1^−/− and germ-free mice were collected, weighed and stored at −80° C. until processing. The stools were suspended, diluted to 100 mg/ml in PBS, centrifuged (5000 g, 15 min, 4° C.) and filtered (0.2 μm; VWR, Fontenay-sous-Bois, France). Lactobacillus and Bifidobacterium spp. were grown in MRS medium (BD Difco, Le Pont De Claix, France) supplemented with 10% cysteine (Sigma-Aldrich) at 37° C. under respectively aerobic and anaerobic conditions. Allobaculum stercoricanis (DSMZ 13633) was cultivated under the recommended culture condition listed in the DSMZ. Cultured supernatants of these bacteria were stored at −80° C. until processing. […] After adding 100 μl of Promega-stabilized luciferase reagent, the luciferase activity was measured using a luminometer. […]

[5] = defect in MCard9−/− mice, Ficz 1 μg/mouse i.p.
[6] = Ficz-treated vs non-treated MCard9−/− mice

Cc1ccccc1N=Nc1ccc(NC(=O)c2ccnn2C)c(C)c1 [AHR antagonist, CH223191]
effects of the three Lactobacillus strains in the presence of an AHR antagonist (Card9−/−→GF mice): abrogated

O=Cc1c2c(cc3c1=Nc1ccccc1-3)=Nc1ccccc1-2 [Ficz, 6-formylindolo[3,2-b]carbazole]
colitis severity (body weight loss, histology score, colon shortening) [1]: weaker colitis severity | Il17 expression ([2]; colon, Ficz treatment): not altered | Il22 colonic expression [2, 5]: rescued | RegIIIβ colonic expression [2, 5]: rescued | RegIIIγ colonic expression [2, 5]: rescued | IFNgamma in the colon [3, 6]: No significant differences | IL6 in the colon [3, 6]: No significant differences | IL10 in the colon [3, 6]: No significant differences | Il17 production ([3]; colon explants cultured 24 h, Ficz treatment): not altered

OC(Cn1cncn1)(Cn1cncn1)c1ccc(F)cc1F [antifungal, fluconazole]
colitis phenotype (weight loss and DAI) of MCard9−/− vs MWT mice [4]: did not modify the phenotype

Lactobacillus reuteri
AhR activation by cultured supernatants (AhR): strongly activate AhR
